Measurements reported in patent US20230192623A1, “Indazole Derivatives” (Hoffmann-La Roche Inc., priority 2020, published 2023).

Molecular target: T1, human cGAS (residues 161-522) (Homo sapiens, UniProt Q8N884)
T1 construct: Recombinantly expressed purified human cGAS (residues 161-522) was used at 25nM; made in house
Experiment: Malachite Green assay to measure cGAS activity (coupled enzymatic assay, phosphate detection)
Assay type: biochemical
Settings: recombinant purified human cGAS 25 nM; 80 μM ATP, 80 μM GTP, 100 nM ISD; 4 hour at RT; absorbance 620 nm
Experimental: Malachite Green Assay to Measure cGAS Activity
Compounds were tested for cGAS inhibition in a coupled enzymatic assay based on Phosphate detection by Malachite Green. Final assay conditions were 20 mM TRIS pH 7.5 (Applichem), 5 mM MgCl2 (Sigma) and 0.01% BSA (Sigma) supplemented with 80 μM ATP (Sigma), 80 μM GTP (Sigma) and 100 nM Interferon Stimulating DNA (ISD) (Microsynth). Recombinantly expressed purified human cGAS (residues 161-522) was used at 25nM.
All compounds were prepared as 10 mM stock solutions in DMSO and a 16 pt dilution series in DMSO with a dilution factor of 2.5 was prepared. 1 μL of DMSO dilution series was transferred to 32.3 μL reaction buffer, mixed by pipetting up/down, spun for 1 minute at 3000 rpm and was visually inspected for precipitation. 5 μL of 3-fold enzyme stock solution were transferred to an empty 384-well Black/Clear Flat Bottom Polystyrene NBS (Corning) rows 3-24. Rows 1-2 were filled with assay buffer. Plates were spun 10 seconds at 1000 rpm (164×g). 5 μL of compound intermediate dilution was added and mixed by pipetting up/down to rows 3-24. Rows 1-2 were filled with 3.1% DMSO assay buffer. Plates were spun 10 seconds at 1000 rpm (164×g). 5 μL 3-fold Nucleotide/DNA mix was added to all wells to start the reaction. Plates were spun 10 seconds at 1000 rpm (164×g) and incubated for 4 hour at room temperature (RT) in the dark. 5 μL 4U/mL PPase (Sigma) were added to all wells. Plates spun 10 seconds at 1000 rpm (164×g). 10 μL BioMol green Solution (Enzo Life Sciences) was added to all wells. Plates spun 10 seconds at 1000 rpm (164×g) and incubated 30 minutes at RT in the dark. Absorbance data was collected 620 nm on an EnVision Multilable Reader (Perkin Elmer) and the following measurement settings were used: excitation filter photometric was 620 nm; excitation from the top; measurement height was 1 mm; number of flashes was 30; number of flashes integrated was 1.
All plates are checked for abnormalities and outliers in the Blank Control (no protein, row 1) and the Neutral Control (no compound, row 2) are excluded using the 3*SD rule. Data was normalized to 0 and 100% by Blank and Neutral Control and each curve was fitted and judged using the 4 parameter logistic equation to determine the IC50 for cGAS inhibition.
Table 1 provides IC50 values (μM) for cGAS inhibition obtained for particular examples of the present invention as measured by the above-described assay.

T1 sequence (Q8N884 161-522): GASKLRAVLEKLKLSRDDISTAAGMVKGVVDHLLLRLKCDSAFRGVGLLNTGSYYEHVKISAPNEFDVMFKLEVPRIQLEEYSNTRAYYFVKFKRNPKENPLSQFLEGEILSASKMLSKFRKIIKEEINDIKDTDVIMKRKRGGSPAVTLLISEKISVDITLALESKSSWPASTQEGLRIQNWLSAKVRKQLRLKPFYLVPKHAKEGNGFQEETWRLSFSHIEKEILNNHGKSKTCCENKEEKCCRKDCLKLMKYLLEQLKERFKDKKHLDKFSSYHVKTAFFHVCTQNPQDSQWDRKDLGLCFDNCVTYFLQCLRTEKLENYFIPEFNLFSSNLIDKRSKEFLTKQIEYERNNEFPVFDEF

| IC50 [nM] | SMILES |
| --- | --- |
| 1920 | Cc1ccc(-c2cc(C(=O)O)c3cn(CCN4CCN(C)CC4)nc3c2)c(Cl)c1 [Example 1, 6-(2-Chloro-4-methylphenyl)-2-(2-(4-methylpiperazin-1-yl)ethyl)indazole-4-carboxylic acid] |
| 2200 | Cc1ccc(-c2cc(C(=O)O)c3cn(Cc4ccccc4Cl)nc3c2)c(Cl)c1 [Example 2, 6-(2-Chloro-4-methylphenyl)-2-[(2-chlorophenyl)methyl]indazole-4-carboxylic acid] |
| 3180 | Cc1ccc(-c2cc(C(=O)O)c3cn(Cc4cccc(Cl)c4)nc3c2)c(Cl)c1 [Example 3, 6-(2-Chloro-4-methylphenyl)-2-[(3-chlorophenyl)methyl]indazole-4-carboxylic acid] |
| 2760 | Cc1ccc(-c2cc(C(=O)O)c3cn(Cc4ccc(Cl)cc4)nc3c2)c(Cl)c1 [Example 4, 6-(2-Chloro-4-methylphenyl)-2-[(4-chlorophenyl)methyl]indazole-4-carboxylic acid] |
| 2210 | Cc1ccc(-c2cc(C(=O)O)c3cn(Cc4nc(C5CC5)no4)nc3c2)c(Cl)c1 [Example 5, 6-(2-Chloro-4-methylphenyl)-2-((3-cyclopropyl-1,2,4-oxadiazol-5-yl)methyl)indazole-4-carboxylic acid] |
| 2930 | Cc1ccc(-c2cc(C(=O)O)c3cn(Cc4cccnc4)nc3c2)c(Cl)c1 [Example 6, 6-(2-Chloro-4-methylphenyl)-2-(pyridin-3-ylmethyl)indazole-4-carboxylic acid] |
| 2400 | Cc1ccc(-c2cc(C(=O)O)c3cn(Cc4ccccn4)nc3c2)c(Cl)c1 [Example 7, 6-(2-Chloro-4-methylphenyl)-2-(pyridin-2-ylmethyl)indazole-4-carboxylic acid] |
| 2740 | Cc1ccc(-c2cc(C(=O)O)c3cn(Cc4nc(C)c(C)o4)nc3c2)c(Cl)c1 [Example 8, 6-(2-Chloro-4-methylphenyl)-2-((4,5-dimethyloxazol-2-yl)methyl)indazole-4-carboxylic acid] |
| 1560 | Cc1ccc(-c2cc(C(=O)O)c3cn(CC(F)(F)F)nc3c2)c(Cl)c1 [Example 9, 6-(2-Chloro-4-methylphenyl)-2-(2,2,2-trifluoroethyl)-2H-indazole-4-carboxylic acid] |
| 1370 | Cc1ccc(-c2cc(C(=O)O)c3cn(Cc4ccccc4)nc3c2)c(Cl)c1 [Example 10, 2-Benzyl-6-(2-chloro-4-methylphenyl)-2H--indazole-4-carboxylic acid] |
| 2350 | Cc1ccc(-c2cc(C(=O)O)c3cn(CCc4ccccc4)nc3c2)c(Cl)c1 [Example 11, 6-(2-Chloro-4-methylphenyl)-2-phenethyl-2H-indazole-4-carboxylic acid] |
| 4590 | Cc1cc(Cl)c(-c2cc(C(=O)O)c3cn[nH]c3c2)cc1F [Example 12, 6-(2-Chloro-5-fluoro-4-methylphenyl)-1H-indazole-4-carboxylic acid] |
| 4460 | Cc1ccc(-c2cc(C(=O)O)c3cn[nH]c3c2)c(Cl)c1 [Example 13, 6-(2-Chloro-4-methylphenyl)-1H-indazole-4-carboxylic acid] |
